According to the supplement of paper PMC10949913:

Assays:
Assay in all cases: area under concentration-response curve (viability) (AUC (a.u.)); higher = less active
Conditions in all cases: 48 h
CU-ACC1 = test system: CU-ACC1
Procedure, shortened: (§1)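 Concentration-response curves were fitted to obtain AC50 and area under the curve, keeping inhibitory or non-responding curve classes only. Data came from CellTiter-Glo luminescence, normalised per plate to vehicle and empty-well controls, in three adrenocortical carcinoma cell lines. These were treated in 1,536-well plates with library compounds at 11 concentrations and read after 48 h.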

CU-ACC2 = test system: CU-ACC2
Procedure, shortened: as §1

NCI-H295R = test system: NCI-H295R
Procedure, shortened: as §1

## CCCN(CCC)C(=O)C(CCC(=O)O)NC(=O)c1ccccc1 (stereo unspecified)
CU-ACC1
  area under concentration-response curve: 504
CU-ACC2
  area under concentration-response curve: 570
NCI-H295R
  area under concentration-response curve: 524

## O=NN(CCCl)C(=O)NCCCl
CU-ACC1
  area under concentration-response curve: 454
CU-ACC2
  area under concentration-response curve: 522
NCI-H295R
  area under concentration-response curve: 466

## O=C1NNc2nc(CN3Cc4ccccc4C3)nc3cccc1c23
CU-ACC1
  area under concentration-response curve: 537
CU-ACC2
  area under concentration-response curve: 600
NCI-H295R
  area under concentration-response curve: 526

## CC(C)C[C@@H](C(=O)N[C@H](C(=O)OC1CCCC1)c1ccccc1)[C@H](O)C(=O)NO
CU-ACC1
  area under concentration-response curve: 463
CU-ACC2
  area under concentration-response curve: 551
NCI-H295R
  area under concentration-response curve: 539

## OC[C@H]1OC(O)C[C@@H](O)[C@@H]1O (stereo partly specified)
CU-ACC1
  area under concentration-response curve: 562
CU-ACC2
  area under concentration-response curve: 694
NCI-H295R
  area under concentration-response curve: 607

## Cc1[nH]nc(C(F)(F)F)c1Cc1sc2c(c1C(=O)N1C[C@](C)(O)CO1)c(=O)n(C)c(=O)n2C(C)C
CU-ACC1
  area under concentration-response curve: 431
CU-ACC2
  area under concentration-response curve: 552
NCI-H295R
  area under concentration-response curve: 509

## Cc1cc(SCc2sc(-c3ccc(C(F)(F)F)c(F)c3)nc2C)ccc1OCC(=O)O
CU-ACC1
  area under concentration-response curve: 539
CU-ACC2
  area under concentration-response curve: 493
NCI-H295R
  area under concentration-response curve: 565

## N[S+](=O)([O-])c1cc2c(cc1Cl)NCN[S+]2(=O)[O-]
CU-ACC1
  area under concentration-response curve: 480
CU-ACC2
  area under concentration-response curve: 563
NCI-H295R
  area under concentration-response curve: 430

## CN(CCOc1ccc(N[S+](C)(=O)[O-])cc1)CCc1ccc(N[S+](C)(=O)[O-])cc1
CU-ACC1
  area under concentration-response curve: 541
CU-ACC2
  area under concentration-response curve: 637
NCI-H295R
  area under concentration-response curve: 586

## Nc1cccc2c1CN([C@H]1CCC(=O)NC1=O)C2=O
CU-ACC1
  area under concentration-response curve: 454
CU-ACC2
  area under concentration-response curve: 544
NCI-H295R
  area under concentration-response curve: 498

## CN(C)CCOC(c1ccccc1)c1ccccc1
CU-ACC1
  area under concentration-response curve: 478
CU-ACC2
  area under concentration-response curve: 565
NCI-H295R
  area under concentration-response curve: 527

## Nc1ncnc2c1ncn2[C@@H]1O[C@H](CO)[C@@H](O)[C@H]1O
CU-ACC1
  area under concentration-response curve: 463
CU-ACC2
  area under concentration-response curve: 506
NCI-H295R
  area under concentration-response curve: 470

## COC/1=C/C=C2\C(=C/C1=O)[C@H](CCC3=CC(=C(OC)C(=C23)OC)OC)NC(C)=O
CU-ACC1
  area under concentration-response curve: 536
CU-ACC2
  area under concentration-response curve: 548
NCI-H295R
  area under concentration-response curve: 480

## CCC1=C(C)CN(C(=O)NCCc2ccc(S(=O)(=O)NC(=O)N[C@H]3CC[C@H](C)CC3)cc2)C1=O
CU-ACC1
  area under concentration-response curve: 508
CU-ACC2
  area under concentration-response curve: 600
NCI-H295R
  area under concentration-response curve: 559

## C#CCC(Cc1cnc2nc(N)nc(N)c2n1)c1ccc(C(=O)N[C@@H](CCC(=O)O)C(=O)O)cc1 (stereo partly specified)
CU-ACC1
  area under concentration-response curve: 552
CU-ACC2
  area under concentration-response curve: 509
NCI-H295R
  area under concentration-response curve: 546

## O=C(c1cncc(Br)c1)N1CCC(N2CCCC2)CC1
CU-ACC1
  area under concentration-response curve: 489
CU-ACC2
  area under concentration-response curve: 440
NCI-H295R
  area under concentration-response curve: 528

## COc1cc(C(=O)N[S+](=O)([O-])c2ccccc2C)ccc1Cc1cn(C)c2ccc(NC(=O)OC3CCCC3)cc12
CU-ACC1
  area under concentration-response curve: 513
CU-ACC2
  area under concentration-response curve: 595
NCI-H295R
  area under concentration-response curve: 488

## CCCc1nc(C(C)(C)O)c(C(=O)O)n1Cc1ccc(-c2ccccc2-c2nn[nH]n2)cc1
CU-ACC1
  area under concentration-response curve: 436
CU-ACC2
  area under concentration-response curve: 521
NCI-H295R
  area under concentration-response curve: 462

## CCNC(=O)[C@H]1O[C@@H](n2cnc3c(N)nc(NCCc4ccc(CCC(=O)O)cc4)nc32)[C@H](O)[C@@H]1O
CU-ACC1
  area under concentration-response curve: 404
CU-ACC2
  area under concentration-response curve: 587
NCI-H295R
  area under concentration-response curve: 537

## C\C1=N\N(C(=O)C1)C2=CC=CC=C2
CU-ACC1
  area under concentration-response curve: 492
CU-ACC2
  area under concentration-response curve: 585
NCI-H295R
  area under concentration-response curve: 478

## CC1=C(F)C=CC(=C1)N2C(=O)\C=C/C3=C2C4=C([NH]C=C4)N=C3
CU-ACC1
  area under concentration-response curve: 519
CU-ACC2
  area under concentration-response curve: 509
NCI-H295R
  area under concentration-response curve: 527

## CC(C)(C)c1nc(-c2cccc(N[S+](=O)([O-])c3c(F)cccc3F)c2F)c(-c2ccnc(N)n2)s1
CU-ACC1
  area under concentration-response curve: 542
CU-ACC2
  area under concentration-response curve: 608
NCI-H295R
  area under concentration-response curve: 542

## CN[C@H](CC(C)C)C(=O)N[C@H]1C(=O)N[C@@H](CC(N)=O)C(=O)N[C@H]2C(=O)N[C@H]3C(=O)N[C@H](C(=O)N[C@H](C(=O)O)c4cc(O)cc(O)c4-c4cc3ccc4O)[C@H](O)c3ccc(c(Cl)c3)Oc3cc2cc(c3O[C@@H]2O[C@H](CO)[C@@H](O)[C@H](O)[C@H]2O[C@H]2C[C@](C)(N)[C@H](O)[C@H](C)O2)Oc2ccc(cc2Cl)[C@H]1O
CU-ACC1
  area under concentration-response curve: 589
CU-ACC2
  area under concentration-response curve: 676
NCI-H295R
  area under concentration-response curve: 614

## CC(C)C1CCC(C(=O)N[C@H](Cc2ccccc2)C(=O)O)CC1 (stereo partly specified)
CU-ACC1
  area under concentration-response curve: 551
CU-ACC2
  area under concentration-response curve: 652
NCI-H295R
  area under concentration-response curve: 599

## OC1=CC2=C(C(=C1)O)C(=O)\C(=C(/O2)C3=CC(=C(O)C(=C3)O)O)O
CU-ACC1
  area under concentration-response curve: 553
CU-ACC2
  area under concentration-response curve: 600
NCI-H295R
  area under concentration-response curve: 508

## CC(C)(C)NCC(O)c1ccc(O)c(CO)c1 (stereo unspecified)
CU-ACC1
  area under concentration-response curve: 504
CU-ACC2
  area under concentration-response curve: 598
NCI-H295R
  area under concentration-response curve: 567

## Cn1cnc(N)c2ncnc1-2
CU-ACC1
  area under concentration-response curve: 438
CU-ACC2
  area under concentration-response curve: 467
NCI-H295R
  area under concentration-response curve: 448

## COc1ccc(CC2c3cc(OC)c(OC)cc3CC[N+]2(C)CCC(=O)OCCCCCOC(=O)CC[N+]2(C)CCc3cc(OC)c(OC)cc3C2Cc2ccc(OC)c(OC)c2)cc1OC (stereo unspecified)
CU-ACC1
  area under concentration-response curve: 449
CU-ACC2
  area under concentration-response curve: 494
NCI-H295R
  area under concentration-response curve: 474

## CO[C@@H]1[C@H](N(C)C(=O)c2ccccc2)C[C@H]2O[C@]1(C)n1c3ccccc3c3c4c(c5c6ccccc6n2c5c31)C(=O)NC4
CU-ACC1
  area under concentration-response curve: 522
CU-ACC2
  area under concentration-response curve: 476
NCI-H295R
  area under concentration-response curve: 492

## CN1CCN(CC1)C\2=C\3/C=C(/C)SC3=N/C4=CC=CC=C4N2
CU-ACC1
  area under concentration-response curve: 556
CU-ACC2
  area under concentration-response curve: 513
NCI-H295R
  area under concentration-response curve: 555

## OC(CCN1CCCCC1)(C2CC\3CC2\C=C3)C4=CC=CC=C4 (stereo unspecified)
CU-ACC1
  area under concentration-response curve: 522
CU-ACC2
  area under concentration-response curve: 582
NCI-H295R
  area under concentration-response curve: 519

## COCCOc1ccc(N2CCN(CCn3ncc4c3nc(N)n3nc(-c5ccco5)nc43)CC2)cc1
CU-ACC1
  area under concentration-response curve: 552
CU-ACC2
  area under concentration-response curve: 606
NCI-H295R
  area under concentration-response curve: 530

## O=P(O)(O)C(O)(Cc1cccnc1)P(=O)(O)[O][Na] (stereo unspecified)
CU-ACC1
  area under concentration-response curve: 508
CU-ACC2
  area under concentration-response curve: 573
NCI-H295R
  area under concentration-response curve: 533

## C[C@]12CCC3[C@@H](CC[C@H]4NC(=O)\C=C/[C@]34C)[C@@H]1CC[C@@H]2C(=O)NC5=CC(=CC=C5C(F)(F)F)C(F)(F)F (stereo partly specified)
CU-ACC1
  area under concentration-response curve: 557
CU-ACC2
  area under concentration-response curve: 645
NCI-H295R
  area under concentration-response curve: 578

## Nc1ccc([S+](N)(=O)[O-])cc1
CU-ACC1
  area under concentration-response curve: 417
CU-ACC2
  area under concentration-response curve: 415
NCI-H295R
  area under concentration-response curve: 409

## CNC(=O)Cn1cc(-c2ccc3c(c2)C(F)CC32NC(=O)N(CC(=O)N(Cc3ccc(F)cc3)C(C)C(F)(F)F)C2=O)cn1 (stereo unspecified)
CU-ACC1
  area under concentration-response curve: 500
CU-ACC2
  area under concentration-response curve: 546
NCI-H295R
  area under concentration-response curve: 512

## CCC(C)(Oc1ccc(C2(c3ccc(OC(C)(CC)C(=O)O)cc3)CCCCC2)cc1)C(=O)O (stereo unspecified)
CU-ACC1
  area under concentration-response curve: 500
CU-ACC2
  area under concentration-response curve: 572
NCI-H295R
  area under concentration-response curve: 470
